Data published in patent publication US20130123168A1, “HUMANIN AND HUMANIN-ANALOGUES FOR THE MANAGEMENT OF ATHEROSCLEROSIS” (The Regents of the University of California, priority 2011, published 2013).
Entries after “also recorded” stand apart in the source; their conditions may differ.

How the values were obtained:
NIT cells = settings: cited from earlier work
[1] = tested on: atherosclerotic plaque in the aortic arch; experiment: TUNEL staining of apoptotic cells in plaques of the aortic arch; format: in vivo; settings: Group 4: ApoE-deficient mice, high cholesterol diet
Procedure: The effect of HNGF6A on mice was studied in 4 different animal groups (n=12 per group); Group 1: C57BL/6 feed normal diet+intraperitoneal (IP) saline, Group 2: C57BL/6 feed normal diet+IP HNGF6A, Group 3: ApoE-deficient feed high cholesterol diet+IP saline, and Group 4: ApoE-deficient feed high cholesterol diet+IP HNGF6A (Group 4). Experiment was conducted over the course of 16 weeks. Female C57BL/6 mice and Apo E-deficient mice were obtained at the age of 4 weeks from Jackson Laboratory Animals had free access to water, were maintained at 24° C., and kept at a 12 hr light/dark cycle. Depending on the study group, the mice were treated with a normal diet or high cholesterol diet (HC, 0.15% cholesterol and 42% milk fat by weight, TD88137 or “Western diet”; Harlan Teklad) and received intraperitoneal injection (IP) of saline or HNGF6A (glycine variant of HN, 0.4 mg/kg/day, Peptide International, Louisville, Ky.) for 16 weeks. […] Blood samples were collected by cardiac puncture. Terminal deoxynucleotidyl transferase dUTP nick end labeling (TUNEL) was performed using the in situ Apoptosis Detection Kit (S7100-KIT; Chemicon). The procedure was performed following the manufacturers' protocol. […] The number of positive cells in atherosclerotic plaque was counted using x400 magnification. […] Data was expressed as mean±SEM. […]

[2] = tested on: atherosclerotic plaques in proximal aorta; experiment: Morphometric analysis of plaque size in proximal aorta cross sections; format: in vivo, mice; settings: IP 0.4 mg/kg/day, 16 weeks
[3] = tested on: human aortic endothelial cells (HAECs); experiment: TUNEL assay of Ox-LDL induced apoptosis in HAEC; format: cell-based; settings: pre-incubated overnight with 0.1 μM, then 100 μg/ml Ox-LDL for 6 hours
Procedure: To accomplish this, a TUNEL assay was applied to measure the levels of apoptosis in HAECs treated with or without HN prior to exposure with Ox-LDL (FIG. 2). HAECs were plated on glass cover slips and incubated overnight with or without added HN (0.1 μM). The cells were then exposed to Ox-LDL (100 μg/ml; Biomedical Technologies Inc.) for 6 hours at 37° C. in the absence of HN. Apoptotic cells were quantified by TUNEL assay using the In Situ Death Detection Kit® (Roche Applied Science), mounted in SlowFade containing DAPI (Invitrogen) and observed by flourescent microscope. Apoptotic cells were defined based in morphological changes in the nuclei and the fluorescent intensity after TUNEL staining. The apoptotic index (AI)=(number of apoptotic cells)/(total number of cells)

[4] = tested on: human aortic endothelial cells (HAECs); experiment: Ox-LDL induced ROS production, dihydroethidium (DHE) fluorescence; format: cell-based
Procedure: Prior studies have reported that treatment of vascular endothelial cells with oxidized low density lipoprotein (LDL) stimulates reactive oxygen species (ROS) formation. To test whether humanin (HN) affects Ox-LDL induced ROS production in endothelial cells, the fluorescent probe dihydroethidium was utilized in order to detect superoxide in living cells. DHE fluorescence was measured in human aortic endothelial cells (HAECs) preincubated with HN and subsequently exposed to Ox-LDL. Intracellular ROS production was monitored by following the conversion of the oxidant sensitive dye dihydroethidine to fluorescent ethidium.
To accomplish this, as described in Bachar et al. (2010) Cardiovasc. Res. 88(2):360-6 (incorporated by reference in its entirety). […] Fluorescent images were then taken with an inverted fluorescent microscope (Olympus IX70) at 15× magnification using appropriate filters fro ethidium fluorescence. Ten to twelve non-overlapping images in each culture dish were acquired and quantified by image analysis using Metamorph software (Molecular Devices). Only those cells whose fluorescence exceeded twice the basal level of fluorescence of non-treated cells were used for quantification of DHE fluorescence. Values are expressed as average relative fluorescence units for n≧100 cells per experimental condition in 2 independent experiments. […]

[5] = tested on: human aortic endothelial cells (HAECs); experiment: Cellular ceramide levels by HPLC/MS/MS after Ox-LDL; format: cell-based; settings: 0.1 μM overnight, then Ox-LDL 100 μg/ml for 6 hours
Procedure: HAECs were plated on glass cover slips and incubated overnight with or without added HN (0.1 μM). The cells were then exposed to Ox-LDL (100 μg/ml; Biomedical Technologies Inc.) for 6 hours. Cells were then scraped into PBS, pelleted and frozen in liquid nitrogen. These samples were sent to MUSC-lipidomics core (Lipidomics Analytical Unit) for processing to detect and quantify individual ceramide species by HPLC/MS/MS.

For “HNGF6A: HN analogue, SEQ ID NO:16 MAPRGASCLLLLTGEIDLPVKRRA (listed as Homo sapiens)”, which “potency compared to humanin in promoting survival and activating STAT-3 and ERK” value (shortened to “potency compared to humanin”) (NIT cells) is on record?
The value was “even greater potency”.

And the “numbers of apoptotic cells in plaques compared to Group 3 (in words)” value ([1]; IP)?
Its value is “significantly decreased”.

What about the “number of apoptotic cells in plaques in the aortic arch” value ([1]; IP 0.4 mg/kg/day, 16 weeks, mean±SEM) of the same substance?
The value was 84±17 cells/mm^2.

And the “presence of plaque in aorta” value ([2]; Group 2: C57BL/6 mice, normal diet, 0.4 mg/kg/day)?
Its value is “Plaques were not visible; also recorded: no plaque was apparent”.

What about the plaque size ([2]; Group 4: ApoE-deficient mice, high cholesterol diet) of the same substance?
The plaque size was 0.01±0.003 mm^2.

For “humanin (MAPRGFSCLLLLTSEIDLPVKRRA; listed as Homo sapiens) [HN]”, which “relative decrease in apoptosis compared to cells without pretreatment” value [3] is on record?
The value was “more than 50%”.

What about the “decrease in ROS production” value ([4]; HN pretreatment overnight prior to Ox-LDL (100 μg/ml, 30 min) exposure) of the same substance?
Its value is “approximately 50%”.

And the “decrease in Ox-LDL induced ROS formation, dose dependence” value ([4]; HN titration)?
Its value is “dose-dependent manner”.

What about the “total cellular amount of ceramides, including C16-ceramide” value [5] of the same substance?
Its value is “decrease”.

Which “potency compared to humanin” value (NIT cells) does the source give for “F6AK21A-HNG: SEQ ID NO:17 MAPRGASCLLLLTGEIDLPVARRA (listed as Homo sapiens)” here?
The value was “even greater potency”.

Which “potency compared to humanin” value (NIT cells) does the source give for “Z-FIN: SEQ ID NO:18 MAKRGLNCLPHQVSEIDLSVQKRI (listed as Homo sapiens)” here?
The value was “two-fold greater potency than humanin”.
